Reference: patent publication US6344179B1, “Fluoralkenyl nortropanes” (Emory University, priority 1999, dated 2002)
“Also recorded” adds a separate entry of the source.

Tests used:
[1] = test system: DAT; conditions: non-human primates, within 2 h post injection; cited from earlier work
[2] = test system: DAT; conditions: cited from earlier work
[3] = target: T1, rat brain DAT (Rattus norvegicus, UniProt P23977); assay: In vivo specificity: RTI-113 block before the 18F ligand in rats
T1 construct: from tissue; host or cells: brain of living male Sprague Dawley rats (striatum, cortex, cerebellum dissected)
T1 sequence (P23977 whole entry): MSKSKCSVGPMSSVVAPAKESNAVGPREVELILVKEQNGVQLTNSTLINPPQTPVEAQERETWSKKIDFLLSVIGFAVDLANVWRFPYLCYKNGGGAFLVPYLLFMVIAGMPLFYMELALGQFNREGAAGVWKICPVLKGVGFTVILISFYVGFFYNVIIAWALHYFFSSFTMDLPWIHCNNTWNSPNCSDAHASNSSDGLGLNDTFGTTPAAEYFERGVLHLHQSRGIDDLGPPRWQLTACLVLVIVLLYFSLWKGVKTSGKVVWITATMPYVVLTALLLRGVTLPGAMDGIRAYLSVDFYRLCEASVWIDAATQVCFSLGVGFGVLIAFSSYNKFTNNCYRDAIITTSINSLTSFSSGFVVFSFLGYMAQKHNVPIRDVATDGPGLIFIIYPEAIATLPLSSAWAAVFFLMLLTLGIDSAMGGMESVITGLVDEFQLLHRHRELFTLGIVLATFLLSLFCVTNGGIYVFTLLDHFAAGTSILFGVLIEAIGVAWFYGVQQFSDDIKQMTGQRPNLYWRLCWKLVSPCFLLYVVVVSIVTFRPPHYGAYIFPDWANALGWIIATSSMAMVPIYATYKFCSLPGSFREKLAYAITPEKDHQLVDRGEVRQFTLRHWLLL
Description: To determine the in vivo specificity of FBNT analogs [^18F] […] 6a, 6d and 6e. The rats were sacrificed 60 minutes after injection of [^18F] […] 6a, 6d and 6e, in the DAT transporter rich striatum.

[4] = target: T1, rat brain DAT; assay: In vivo selectivity: block with monoamine transporter ligands before [18F]FBCINT in rats; conditions: 60 minutes
Description: FBCINT. The rats were sacrificed 60 minutes after injection of [^18F] FBCINT and the striatum, cortex, prefrontal cortex, olfactory tubercles and cerebellum were dissected and the uptake of radioactivity determined. The monoamine transporter ligands administered were RTI-113 (DAT), paroxetine (SERT) and reboxetine (NET). […] FBCINT in the DAT transporter rich striatum and olfactory tubercles. […] FBCINT.

[5] = Stability to metabolism and in vivo loss of fluorine-18
[6] = test system: striatal DAT; assay: Chase (displacement) study with β-CIT, PET in rhesus monkey; assay type: in vivo; conditions: for displacement from striatum by β-CIT: PET
Description: A chase study with E-[^18F] FBCINT and β-CIT, a DAT ligand, was also performed in the same rhesus monkey. At 195 minutes p.i. 3.0 mg (0.9 μmol/kg) of β-CIT, was administered intravenously and dynamic imaging was continued for an additional 40 minutes (eight 5 minute scans). […] The displacement of E-[^18F] […] The regional distribution and kinetic behavior of E-[^18F] […] FBFNT (6e) were next compared in the brain of awake rhesus monkeys.

[7] = In vivo regional brain tissue distribution of 18F-labeled ligands in rats; set-up: species or system Sprague Dawley rats; conditions: rat; for Regional uptake of radioactivity, Cerebellum / Regional uptake of radioactivity, Cortex (Cx) / Regional uptake of radioactivity, Striatum / Uptake of radioactivity, Blood / Uptake of radioactivity, Bone / Uptake of radioactivity, Brain: i.v., 18F-labeled
Source text: The in vivo regional brain tissue distribution of [^18F]

[8] = PET brain imaging in a rhesus monkey; assay type: in vivo
Description: The regional distribution of E-[^18F] […] Dynamic emission data were acquired using a 35 frame acquisition protocol which included twelve 30 second scans, six one minute scans, six 3 minute scans, five 10 minute scans and six 20 minute scans.

[9] = test system: striatal DAT; assay: PET imaging in awake rhesus monkeys; assay type: in vivo, rhesus monkey
Description: The regional kinetics of [^18F] […] Both [^18F] […] [^18F] […] The peak uptake ratio of striatumwcerebellum was 4:1 at 20 minutes for [^18F] […] 6d. The in vivo ratio of [1^18F] […] FECNT, 5:1. [^18F]

[10] = 60 min, 5 mg/kg RTI-113 i.v. 15 minutes prior

COC(=O)C1C(c2ccc(Cl)cc2)CC2CCC1N2C/C=C/[123I] (stereo not shown) [MMG/142, IPT]
striatal to cerebellum ratios [1]: 15 to 1 | in vitro selectivity (DA/5-HT) [2]: ~7

COC(=O)C1C(c2ccc(Cl)cc2)CC2CCC1N2C/C=C/CF (stereo not drawn) [6d, N-((E)-4-fluorobut-2-en-1-yl)-2β-carbomethoxy-3β-(4-chlorophenyl)nortropane]
Regional uptake of radioactivity, Cerebellum [3, 10]: 0.12 % dose/g | Regional uptake of radioactivity, Cortex (Cx) [3, 10]: 0.14 % dose/g | Regional uptake of radioactivity, Striatum [3, 10]: 0.15 % dose/g | Uptake of radioactivity, Blood [3, 10]: 0.12 % dose/g | Uptake of radioactivity, Brain [3, 10]: 0.12 % dose/g | effect of RTI-113 on uptake in the striatum ([3]; RTI-113 5 mg/kg i.v. 15 minutes prior, 60 minutes): significantly blocked | effect of GBR 12909 on uptake in striatum and olfactory tubercles ([4]; 5 mg/kg i.v. 15 minutes prior): significantly blocked | effect of SERT and NET blocking agents on regional brain uptake ([4]; 5 mg/kg i.v. 15 minutes prior): no effect | Regional uptake, Cerebellum ([4]; GBR 12909 5 mg/kg i.v.): 0.15 % dose/g | Regional uptake, Cortex (CX) (dry tissue) ([4]; GBR 12909 5 mg/kg i.v.): 0.69 % dose/g | Regional uptake, Olfactory Tubercle (dry tissue) ([4]; GBR 12909 5 mg/kg i.v.): 1.07 % dose/g | Regional uptake, Prefrontal Cx (dry tissue) ([4]; GBR 12909 5 mg/kg i.v.): 1.02 % dose/g | Regional uptake, Striatum (dry tissue) ([4]; GBR 12909 5 mg/kg i.v.): 1.51 % dose/g | Regional uptake, Cerebellum ([4]; No Block): 0.13 % dose/g | Regional uptake, Cortex (CX) (dry tissue) ([4]; No Block): 0.53 % dose/g | Regional uptake, Olfactory Tubercle (dry tissue) ([4]; No Block): 5.26 % dose/g | Regional uptake, Prefrontal Cx (dry tissue) ([4]; No Block): 0.74 % dose/g | Regional uptake, Striatum (dry tissue) ([4]; No Block): 6.96 % dose/g | Regional uptake, Cerebellum ([4]; Paroxetine 5 mg/kg i.v.): 0.10 % dose/g | Regional uptake, Cortex (CX) (dry tissue) ([4]; Paroxetine 5 mg/kg i.v.): 0.46 % dose/g | Regional uptake, Olfactory Tubercle (dry tissue) ([4]; Paroxetine 5 mg/kg i.v.): 5.06 % dose/g | Regional uptake, Prefrontal Cx (dry tissue) ([4]; Paroxetine 5 mg/kg i.v.): 0.67 % dose/g | Regional uptake, Striatum (dry tissue) ([4]; Paroxetine 5 mg/kg i.v.): 4.47 % dose/g | Regional uptake, Cerebellum ([4]; Reboxetine 5 mg/kg i.v.): 0.12 % dose/g | Regional uptake, Cortex (CX) (dry tissue) ([4]; Reboxetine 5 mg/kg i.v.): 0.41 % dose/g | Regional uptake, Olfactory Tubercle (dry tissue) ([4]; Reboxetine 5 mg/kg i.v.): 5.74 % dose/g | Regional uptake, Prefrontal Cx (dry tissue) ([4]; Reboxetine 5 mg/kg i.v.): 0.77 % dose/g | Regional uptake, Striatum (dry tissue) ([4]; Reboxetine 5 mg/kg i.v.): 6.64 % dose/g | stability to metabolism and in vivo loss of fluorine-18 [5]: stable to metabolism and in vivo loss of the fluorine-18 radioisotope | displacement from striatum by β-CIT [6]: striatal washout; also recorded: significant reduction of activity in the striatum | displacement from striatum by β-CIT ([6]; listed as FBCINT): exhibited reversibility | washout half-time on displacement by β-CIT ([6]; β-CIT 0.9 μmol/kg i.v. at 195 minutes p.i.): 21 min | clearance from striatal tissue ([7]; at 120 minutes compared to 5 minutes post injection): 50% | Regional uptake of radioactivity, Cerebellum ([7]; 5 min): 0.52 % dose/g | Regional uptake of radioactivity, Cortex (Cx) ([7]; 5 min): 0.76 % dose/g | Regional uptake of radioactivity, Striatum ([7]; 5 min): 1.33 % dose/g | Uptake of radioactivity, Blood ([7]; 5 min): 0.14 % dose/g | Uptake of radioactivity, Bone ([7]; 5 min): 0.30 % dose/g | Uptake of radioactivity, Brain ([7]; 5 min): 0.66 % dose/g | Regional uptake of radioactivity, Cerebellum ([7]; 30 min): 0.19 % dose/g | Regional uptake of radioactivity, Cortex (Cx) ([7]; 30 min): 0.40 % dose/g | Regional uptake of radioactivity, Striatum ([7]; 30 min): 1.31 % dose/g | Uptake of radioactivity, Blood ([7]; 30 min): 0.16 % dose/g | Uptake of radioactivity, Bone ([7]; 30 min): 0.80 % dose/g | Uptake of radioactivity, Brain ([7]; 30 min): 0.29 % dose/g | Regional uptake of radioactivity, Cerebellum ([7]; 60 min): 0.10 % dose/g | Regional uptake of radioactivity, Cortex (Cx) ([7]; 60 min): 0.13 % dose/g | Regional uptake of radioactivity, Striatum ([7]; 60 min): 0.61 % dose/g | Uptake of radioactivity, Blood ([7]; 60 min): 0.10 % dose/g | Uptake of radioactivity, Bone ([7]; 60 min): 1.35 % dose/g | Uptake of radioactivity, Brain ([7]; 60 min): 0.14 % dose/g | Regional uptake of radioactivity, Cerebellum ([7]; 120 min): 0.13 % dose/g | Regional uptake of radioactivity, Cortex (Cx) ([7]; 120 min): 0.24 % dose/g | Regional uptake of radioactivity, Striatum ([7]; 120 min): 0.69 % dose/g | Uptake of radioactivity, Blood ([7]; 120 min): 0.13 % dose/g | Uptake of radioactivity, Bone ([7]; 120 min): 1.9 % dose/g | Uptake of radioactivity, Brain ([7]; 120 min): 0.17 % dose/g | Regional uptake of radioactivity, Striatum ([7]; 120 min, listed as [F-18]FBCINT): 2.5 % dose/g | striatum (S) uptake by PET ([8]; 180-210 min): 2.7 μCi/mL | striatum uptake ([8]; PET): high striatum uptake; also recorded: region of highest uptake in the brain | striatal washout / time course of uptake ([9]; awake rhesus monkey, decay corrected): very little if any washout; also recorded: appears constant at 115 minutes post injection | initial uptake in striatum and cerebellum ([9]; awake rhesus monkeys): high initial uptake in the striatum and very little uptake in the cerebellum
